Data published in US8506943B2, “Cyclohexylethyl carboxylic acid ester compositions and method for using the same for reducing malodors” (International Flavors & Fragrances Inc., priority 2009, dated 2013).
Marks after values point to notes of the source that are not given here.

Experiments:
Set-up in all cases: species or system human
[1] = Sweat malodor model (IVA), panel mean rank of odor intensity (Example V); conditions: for mean rank of the odor intensity: 1 = least intense, 5 = most intense, set of racemate, S and R
Description: (§1) Establishment of a Model of Sweat Malodor: It is known that the perspirative malodors of human body, particularly sweat, are associated with the production of several unpleasant smelling organic acids, particularly isovaleric acid (“IVA”). The commercial sample of this malodorous material (commercially available at Sigma-Aldrich Inc.) was thus used as a model compound to assess the effectiveness of sweat malodor counteractants.
(§2) Preparation of Test Samples: The VEILEX™ mixtures (VEILEX™ I, VEILEX™ II, and VEILEX™ III, commercially available from IFF) and the enantiomeric compounds of the present invention (all with optical purity over 80% ee, synthesized as above) were evaluated for sweat malodor counteracting effectiveness. Different concentrations of VEILEX™ mixtures and their enantiomeric counterparts were used based on the priori usage levels. Additionally, the overall intensity of 1-cyclohexylethanol (1% in diethyl phthalate) was noticeably greater than the other two compounds, a higher concentration of IVA (2% in diethyl phthalate) was therefore used for the test.
(§3) Testing Procedure: A cyclohexylethyl carboxylic acid ester compound (1 g, a racemate or enantiomer) and IVA (1 g, 1-2%) were placed in two 1-ounce jars separately, which were both placed in a 1-gallon jar and capped for 24 hours to allow for the headspace saturation prior to the test. Each set of three test samples (i.e., three 1-gallone jars containing IVA and, respectively, a racemate and each of the two enantiomers) was presented in a blind, random order to internal panelists (consisting of trained females having a mean age of 40 years).
(§4) The panelists were instructed to take the steps of i) uncap a first jar; ii) place their noses immediately above the opening; iii) take short sniffs for 2-3 seconds; iv) cap the jar; v) repeat the steps for the other two jars in the same set; and vi) provide a rank of the odor intensity for a set of three jars using the intensity scales of 1 to 5, where 1 represents the “Least Intense” and 5 represents the “Most Intense”. The ranks of the odor intensity were then statistically analyzed using SPSS 15.0 for Windows. Freidman's non-parametric tests were used to analyze the ranked intensity for each test sample. Post hoc pair-wise comparisons were only conducted when the overall Chi-square omnibus test was statistically significant (p<0.05).

[2] = Sweat malodor model (IVA), number of panelists ranking more intense (Example VI); conditions: for rank of the odor intensity (number of panelists who ranked the more intense): S vs R
Description: as §1, §2, §3, §4
(§5) Testing Procedure: Test samples were prepared the same as above. The same procedure was carried out except the ranks of the odor intensity were recorded based on the numbers of the panelists who ranked the more intense.

[3] = Mold/mildew malodor model, number of panelists ranking more intense (Example VI); conditions: for rank of the odor intensity (number of panelists who ranked the more intense): Mold/Mildew, S vs R
Description: as §3, §4
(§6) Establishment of Mold/Mildew and Bathroom Malodor Models: In addition to the sweat model established as above, the malodor models of mold/mildew and bathroom were prepared based on applicant's proprietary formulations for assessing the effectiveness of mold/mildew and bathroom malodor counteractants.
as §5

[4] = Bathroom malodor model, number of panelists ranking more intense (Example VI); conditions: S vs R
Description: as §3, §4, §6, §5

[5] = Mold/mildew malodor intensity on Labeled Magnitude Scale, concentration series (Example VII); conditions: for Malodor Intensity: LMS mean, 0-100; for % MOR (percent malodor reduction): vs Malodor Alone
Description: Determination of an Effective Concentration of (1R)-1-cyclohexylethyl butyrate: To further identify an effective concentration of (1R)-1-cyclohexylethyl butyrate in counteracting mold/mildew malodor, (1R)-1-cyclohexylethyl butyrate was prepared at a series of concentrations, ranging from 0.05% to 10% in diethyl phthalate, with corresponding vapor phase concentrations ranging from about 0.3 to about 60 μg per liter of air space.
Testing Procedure: The same procedure was carried out as in Example VI to evaluate the effectiveness of different concentrations of (1R)-1-cyclohexylethyl butyrate (“VEILEX™ 1R”) in counteracting mold/mildew malodor. The odor intensity was rated using Labeled Magnitude Scale (LMS) [Green, et al., Chemical Senses, 21(3), June 1996, 323-334]. Mean (“Malodor Intensity”) and standard error of the mean (“SE”, ±) were obtained, where 0 represents “No Sensation” and 100 represents “The Strongest Imaginable Malodor Sensation”. Percent malodor reduction (“% MOR”) represents the reduction in mean malodor intensity of the negative control (Malodor Alone) in the presence of an enantiomeric cyclohexylethyl carboxylic acid ester.

[6] = Sweat malodor (1% IVA) intensity on Labeled Magnitude Scale, concentration series (Example VIII); conditions: for Malodor Intensity: LMS mean, 0-100; for % MOR (percent malodor reduction): vs Malodor Alone
Description: Determination of an Effective Concentration of (1S)-1-cyclohexylethyl acetate: To further identify an effective concentration of (1S)-1-cyclohexylethyl acetate in counteracting sweat malodor, (1S)-1-cyclohexylethyl acetate was prepared at a series of concentrations, ranging from 0.05% to 5% in diethyl phthalate, with corresponding vapor phase concentrations ranging from about 1.5 to about 150 μg per liter of air space.
Testing Procedure: The same procedures were carried out as in Examples V and VII to evaluate the effectiveness of different concentrations of (1S)-1-cyclohexylethyl acetate (“VEILEX™ 2S”) in counteracting sweat malodor modeled by 1% of IVA.

[7] = compared with enantiomeric counterpart

CCCC(=O)O[C@@H](C)C1CCCCC1 [1-cyclohexylethyl butyrate S, (S)-1-cyclohexylethyl butyrate]
mean rank of the odor intensity ([1]; IVA (1%), test compound 5%): 2.08
rank of the odor intensity (number of panelists who ranked the more intense) ([2]; IVA (1%), test compound 5%): 8
rank of the odor intensity (number of panelists who ranked the more intense) ([3]; test compound 5%): 20
rank of the odor intensity (number of panelists who ranked the more intense) ([4]; test compound 5%): 12

CC(=O)O[C@H](C)C1CCCCC1 [1-cyclohexylethyl acetate R, (R)-1-cyclohexylethyl acetate]
mean rank of the odor intensity ([1]; IVA (1%), test compound 2%): 2.46
rank of the odor intensity (number of panelists who ranked the more intense) ([2]; IVA (1%), test compound 2%): 11
rank of the odor intensity (number of panelists who ranked the more intense) ([3]; test compound 2%): 11
rank of the odor intensity (number of panelists who ranked the more intense) ([4]; test compound 2%): 12

CC(O)C1CCCCC1 (racemic) [1-cyclohexylethanol M, 1-cyclohexylethanol, reference compound]
mean rank of the odor intensity ([1]; IVA (2%), test compound 1%): 2.58

C[C@@H](O)C1CCCCC1 [1-cyclohexylethanol R, (R)-1-cyclohexylethanol]
mean rank of the odor intensity ([1]; IVA (2%), test compound 1%): 1.50
rank of the odor intensity (number of panelists who ranked the more intense) ([2]; IVA (2%), test compound 1%): 5
rank of the odor intensity (number of panelists who ranked the more intense) ([3]; test compound 1%): 13
rank of the odor intensity (number of panelists who ranked the more intense) ([4]; test compound 1%): 13

CCCC(=O)O[C@H](C)C1CCCCC1 [1-cyclohexylethyl butyrate R, (1R)-1-cyclohexylethyl butyrate]
mean rank of the odor intensity ([1]; IVA (1%), test compound 5%): 1.42
rank of the odor intensity (number of panelists who ranked the more intense) ([2]; IVA (1%), test compound 5%): 4
rank of the odor intensity (number of panelists who ranked the more intense) ([3]; test compound 5%): 5*
effectiveness in counteracting mold/mildew malodor (in words) [3, 7]: significantly and specifically effective in counteracting mold/mildew malodor
rank of the odor intensity (number of panelists who ranked the more intense) ([4]; test compound 5%): 13
Malodor Intensity ([5]; 0.05%, 0.3 μg/L): 13.70
% MOR (percent malodor reduction) ([5]; 0.05%, 0.3 μg/L): 13%
Malodor Intensity ([5]; 0.1%, 0.6 μg/L): 11.86
% MOR (percent malodor reduction) ([5]; 0.1%, 0.6 μg/L): 24%
Malodor Intensity ([5]; 0.5%, 3 μg/L): 12.03
% MOR (percent malodor reduction) ([5]; 0.5%, 3 μg/L): 23%
Malodor Intensity ([5]; 1%, 6 μg/L): 11.66
% MOR (percent malodor reduction) ([5]; 1%, 6 μg/L): 22%
Malodor Intensity ([5]; 10%, 60 μg/L): 8.25
% MOR (percent malodor reduction) ([5]; 10%, 60 μg/L): 47%

CC(=O)O[C@@H](C)C1CCCCC1 [1-cyclohexylethyl acetate S, (1S)-1-cyclohexylethyl acetate]
mean rank of the odor intensity ([1]; IVA (1%), test compound 2%): 1.38*
effectiveness in counteracting sweat malodor (in words) ([1]; compared with racemate and R enantiomer): particularly effective in counteracting sweat malodor
rank of the odor intensity (number of panelists who ranked the more intense) ([2]; IVA (1%), test compound 2%): 2*
effectiveness in counteracting sweat malodor (in words) [2, 7]: significantly and specifically effective in counteracting sweat malodor
rank of the odor intensity (number of panelists who ranked the more intense) ([3]; test compound 2%): 14
rank of the odor intensity (number of panelists who ranked the more intense) ([4]; test compound 2%): 13
Malodor Intensity ([6]; 0.05%, 1.5 μg/L): 17.98
% MOR (percent malodor reduction) ([6]; 0.05%, 1.5 μg/L): 23%
Malodor Intensity ([6]; 0.1%, 3 μg/L): 18.29
% MOR (percent malodor reduction) ([6]; 0.1%, 3 μg/L): 23%
Malodor Intensity ([6]; 0.5%, 15 μg/L): 14.8
% MOR (percent malodor reduction) ([6]; 0.5%, 15 μg/L): 37%
Malodor Intensity ([6]; 1%, 30 μg/L): 14.15
% MOR (percent malodor reduction) ([6]; 1%, 30 μg/L): 42%
Malodor Intensity ([6]; 5%, 150 μg/L): 8.35
% MOR (percent malodor reduction) ([6]; 5%, 150 μg/L): 55%

CCCC(=O)OC(C)C1CCCCC1 (racemic) [1-cyclohexylethyl butyrate M, 1-cyclohexylethyl butyrate, reference compound]
mean rank of the odor intensity ([1]; IVA (1%), test compound 5%): 2.50

CC(=O)OC(C)C1CCCCC1 (racemic) [1-cyclohexylethyl acetate M, 1-cyclohexylethyl acetate, reference compound]
mean rank of the odor intensity ([1]; IVA (1%), test compound 2%): 2.15

C[C@H](O)C1CCCCC1 [1-cyclohexylethanol S, (S)-1-cyclohexylethanol]
mean rank of the odor intensity ([1]; IVA (2%), test compound 1%): 1.92
rank of the odor intensity (number of panelists who ranked the more intense) ([2]; IVA (2%), test compound 1%): 7
rank of the odor intensity (number of panelists who ranked the more intense) ([3]; test compound 1%): 12
rank of the odor intensity (number of panelists who ranked the more intense) ([4]; test compound 1%): 12
